The source of these data is paper PMC3202625, “Pyruvate Kinase Triggers a Metabolic Feedback Loop that Controls Redox Metabolism in Respiring Cells” (Cell Metabolism, 2011).

Each structure is given as a SMILES string.

Test [1] concerns the target T1, rabbit TPI (purified from muscle) (Oryctolagus cuniculus, UniProt P00939).
T1 construct: gene TPI1; native enzyme purified from rabbit muscle; homodimer
Briefly: TPI activity assay, PEP titration; Ki by Cheng-Prusoff equation. The class given is biochemical.

The target of test [2] is T1, rabbit TPI (purified from muscle). The experiment in a line: TPI activity assay, PEP titration. The class given is biochemical. An excerpt: TPI activity assay, PEP titration on rabbit TPI (purified from muscle) | IC50 values and the inhibitory constant Ki are given in μM
In test [3] the target is T2, yeast TPI (endogenous) (Saccharomyces cerevisiae, UniProt P00942).
T2 construct: gene TPI1; endogenous full-length enzyme in yeast extract, activity normalized to total cellular protein; homodimer
T2 sequence (P00942 2-248): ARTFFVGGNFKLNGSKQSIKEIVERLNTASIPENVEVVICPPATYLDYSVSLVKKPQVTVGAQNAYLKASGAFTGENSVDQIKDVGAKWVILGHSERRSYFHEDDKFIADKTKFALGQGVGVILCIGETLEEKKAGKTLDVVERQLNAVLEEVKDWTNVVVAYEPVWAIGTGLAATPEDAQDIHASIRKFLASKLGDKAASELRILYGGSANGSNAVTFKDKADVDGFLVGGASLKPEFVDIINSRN
The experiment in a line: TPI activity assay, PEP titration. The class given is cell-based. Conditions: substrate gly3p, yeast extract. An excerpt: TPI activity assay, PEP titration on yeast TPI (endogenous) | IC50 values and the inhibitory constant Ki are given in μM

Test [4] concerns the target T3, human TPI (expressed in yeast) (Homo sapiens, UniProt P60174).
T3 construct: gene TPI1; human TPI expressed in transgenic yeast lacking endogenous TPI1; extract, activity normalized to total cellular protein; homodimer
Briefly: TPI activity assay, PEP titration; Ki by Cheng-Prusoff equation. The test is classed as biochemical.

The target of test [5] is T3, human TPI (expressed in yeast). The experiment in a line: TPI activity assay, PEP titration. The test is classed as cell-based. An excerpt:
TPI activity assay, PEP titration on human TPI (expressed in yeast) | IC50 values and the inhibitory constant Ki are given in μM

Test [6] deals with T2, yeast TPI (endogenous). The experiment in a line: TPI activity assay, PEP titration; Ki by Cheng-Prusoff equation. The class given is biochemical. Conditions: substrate gly3p, yeast extract.
In test [7] the target is T2, yeast TPI (endogenous). The experiment in a line: TPI activity assay, Michaelis-Menten kinetics. The test is classed as biochemical. Conditions: yeast extract, no PEP.

In general, Ki refers to a measure of affinity in units of concentration, obtained from inhibition or displacement. Lower therefore signals a stronger hold on the target. The term IC50 denotes the midpoint of a concentration-inhibition curve. A lower IC50 goes with higher potency. For orientation: Km means the concentration of substrate that gives half-maximal velocity.

T3 sequence (P60174 2-249): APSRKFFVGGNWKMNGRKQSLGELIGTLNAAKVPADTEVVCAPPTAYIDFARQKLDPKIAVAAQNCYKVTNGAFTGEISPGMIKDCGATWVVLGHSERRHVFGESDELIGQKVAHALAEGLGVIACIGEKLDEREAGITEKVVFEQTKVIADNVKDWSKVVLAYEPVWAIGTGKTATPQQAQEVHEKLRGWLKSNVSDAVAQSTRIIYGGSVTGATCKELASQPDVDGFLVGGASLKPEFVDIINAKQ
T1 sequence (P00939 2-249): as the sequence (P60174 2-249) above, with Q19K, S20N, G26T, A118S counted along it

Regarding `C=C(OP(=O)(O)O)C(=O)O` [PEP], the Ki in test [1] worked out at 156 µM; in test [4], 163 µM; at yeast TPI (endogenous) [6] it was 392 µM. Besides, the IC50 in test [2] stood at 515 µM; on yeast TPI (endogenous) [3], 1130 µM; in test [5], 531 µM.

Regarding `O=C[C@H](O)COP(=O)(O)O` [gly3p], at yeast TPI (endogenous) [7], the Michaelis constant (Km) amounted to 854 µM.
